Data as given in patent publication US9326513B2, “Fungicidal compositions” (Syngenta Participations AG, priority 2011, dated 2016).

Key:
Assay type in all cases: in vivo
Conditions in all cases: foliar, compared to untreated control leaf disks, read-out: disease control
Pyrenophora teres = Pyrenophora teres / barley / leaf disc preventative (net blotch)
Text: Pyrenophora teres/Barley/Leaf Disc Preventative (Net Blotch) Barley leaf segments cv. Hasso were placed on agar in a multiwell plate (24-well format) and sprayed with the formulated test compound diluted in water. The leaf segments were inoculated with a spore suspension of the fungus 2 days after application.

[1] = test system: Puccinia recondita f. sp. tritici; assay: Puccinia recondita f. sp. tritici / wheat / leaf disc preventative (brown rust)
Text: Puccinia recondita f. sp. tritici/Wheat/Leaf Disc Preventative (Brown Rust) Wheat leaf segments cv. Kanzler were placed on agar in multiwell plates (24-well format) and sprayed with the formulated test compound diluted in water. The leaf disks were inoculated with a spore suspension of the fungus 1 day after application.

[2] = test system: Puccinia recondita f. sp. tritici; assay: Puccinia recondita f. sp. tritici / wheat / leaf disc curative (brown rust)
Description: Puccinia recondita f. sp. tritici/Wheat/Leaf Disc Curative (Brown Rust) Wheat leaf segments cv. Kanzler are placed on agar in multiwell plates (24-well format). The leaf segments are inoculated with a spore suspension of the fungus. Plates were stored in darkness at 19° C. and 75% rh. The formulated test compound diluted in water was applied 1 day after inoculation.

[3] = test system: Blumeria graminis f. sp. tritici (Erysiphe graminis f. sp. tritici); assay: Blumeria graminis f. sp. tritici / wheat / leaf disc preventative (powdery mildew on wheat)
Description: Blumeria graminis f. sp. tritici (Erysiphe graminis f. sp. tritici)/Wheat/Leaf Disc Preventative (Powdery Mildew on Wheat)
Wheat leaf segments cv. Kanzler were placed on agar in a multiwell plate (24-well format) and sprayed with the formulated test compound diluted in water. The leaf disks were inoculated by shaking powdery mildew infected plants above the test plates 1 day after application. The inoculated leaf disks were incubated at 20° C. and 60% rh under a light regime of 24 h darkness followed by 12 h light/12 h darkness in a climate chamber and the activity of a compound was assessed as percent disease control compared to untreated when an appropriate level of disease damage appears on untreated check leaf segments (6-8 days after application).
The following compounds gave at 200 ppm give at least 50% disease control in this test when compared to untreated control leaf disks under the same conditions, which show extensive disease development: […]

With CCN(C)/C=N/c1cc(Br)c(OC2CCc3ccc(Br)cc3C2)nc1C (stereo not shown) [Q.067] the pest or weed control at 200 ppm (Pyrenophora teres) was ≥ 50%.
For CCN(C)/C=N/c1cc(Br)c(OCc2cccc(C#Cc3ccccc3)c2)nc1C [Q.311], the pest or weed control at 200 ppm [1] was ≥ 50%, the pest or weed control at 200 ppm [2] was ≥ 50% and the pest or weed control at 200 ppm (Pyrenophora teres) was ≥ 50%.
In the case of CCN(C)/C=N/c1cc(Br)c(OC(C)c2cccs2)nc1C (stereo not shown) [Q.237], the pest or weed control at 200 ppm [1] is reported as ≥ 50% and the pest or weed control at 200 ppm (Pyrenophora teres) is reported as ≥ 50%.
In the case of CCN(C)/C=N/c1cc(Br)c(OCc2cccc(C(C)C)c2)nc1C [Q.169], the pest or weed control at 200 ppm [1] is reported as ≥ 50%, the pest or weed control at 200 ppm [2] is reported as ≥ 50% and the pest or weed control at 200 ppm (Pyrenophora teres) is reported as ≥ 50%.
In the case of COc1ccccc1COc1ccc(/N=C/N(C)C(C)C)c(C)n1 [Q.366], the pest or weed control at 200 ppm [1] is reported as ≥ 50%, the pest or weed control at 200 ppm [2] is reported as ≥ 50% and the pest or weed control at 200 ppm (Pyrenophora teres) is reported as ≥ 50%.
For CCN(C)/C=N/c1cc(Br)c(OCCCC=C(C)C)nc1C [Q.079], the pest or weed control at 200 ppm (Pyrenophora teres) was ≥ 50%.
CCN(C)/C=N/c1cc(Br)c(OC(C)c2cc(F)cc(F)c2)nc1C (stereo not shown) [Q.256] was tested, and the pest or weed control at 200 ppm (Pyrenophora teres) was ≥ 50%.
With CCN(C)/C=N/c1cc(Br)c(OCc2ccc3c(c2)CCCC3)nc1C [Q.319] the pest or weed control at 200 ppm [1] was ≥ 50%, the pest or weed control at 200 ppm [2] was ≥ 50% and the pest or weed control at 200 ppm [3] was ≥ 50%.
Cc1cc(C)cc(COc2ccc(/N=C/N(C)C(C)C)c(C)n2)c1 [Q.297] was tested, and the pest or weed control at 200 ppm [1] was ≥ 50%, the pest or weed control at 200 ppm [2] was ≥ 50% and the pest or weed control at 200 ppm [3] was ≥ 50%.
CCN(C)/C=N/c1cc(Br)c(OC(C)c2ccccc2C(F)F)nc1C (stereo not shown) [Q.290] was tested, and the pest or weed control at 200 ppm [1] was ≥ 50%, the pest or weed control at 200 ppm [2] was ≥ 50% and the pest or weed control at 200 ppm [3] was ≥ 50%.
In the case of C=CCN1CCC(Oc2nc(C)c(/N=C/N(C)CC)cc2Br)CC1 [Q.165], the pest or weed control at 200 ppm [1] is reported as ≥ 50%, the pest or weed control at 200 ppm [2] is reported as ≥ 50% and the pest or weed control at 200 ppm [3] is reported as ≥ 50%.
In the case of CCN(C)/C=N/c1cc(Br)c(OC2CCc3ccc(Br)cc3C2)nc1C (stereo not shown) [Q.127], the pest or weed control at 200 ppm [1] is reported as ≥ 50%, the pest or weed control at 200 ppm [2] is reported as ≥ 50% and the pest or weed control at 200 ppm [3] is reported as ≥ 50%.
COc1cc(OC)cc(C(C)Oc2ccc(/N=C/N(C)C(C)C)c(C)n2)c1 (stereo not shown) [Q.374] was tested, and the pest or weed control at 200 ppm [1] was ≥ 50%, the pest or weed control at 200 ppm [2] was ≥ 50% and the pest or weed control at 200 ppm [3] was ≥ 50%.
In the case of C=Cc1ccccc1C(C)Oc1nc(C)c(/N=C/N(C)CC)cc1Br (stereo not shown) [Q.276], the pest or weed control at 200 ppm [1] is reported as ≥ 50%, the pest or weed control at 200 ppm [2] is reported as ≥ 50% and the pest or weed control at 200 ppm [3] is reported as ≥ 50%.
With C/C=C/c1cc(/N=C/N(C)CC)c(C)nc1OCc1ccccc1C [Q.385] the pest or weed control at 200 ppm [1] was ≥ 50%, the pest or weed control at 200 ppm [2] was ≥ 50% and the pest or weed control at 200 ppm [3] was ≥ 50%.
With CCN(C)/C=N/c1cc(Br)c(OC2CCCc3ccc(Br)cc32)nc1C (stereo not shown) [Q.126] the pest or weed control at 200 ppm [1] was ≥ 50%, the pest or weed control at 200 ppm [2] was ≥ 50% and the pest or weed control at 200 ppm [3] was ≥ 50%.
With CCN(C)/C=N/c1ccc(O[C@H]2CC[C@@H](CC)CC2)nc1C [Q.381] the pest or weed control at 200 ppm [1] was ≥ 50%, the pest or weed control at 200 ppm [2] was ≥ 50% and the pest or weed control at 200 ppm [3] was ≥ 50%.
For CCN(C)/C=N/c1cc(Br)c(OC(C)CCc2ccccc2)nc1C (stereo not shown) [Q.147], the pest or weed control at 200 ppm [1] was ≥ 50%, the pest or weed control at 200 ppm [2] was ≥ 50% and the pest or weed control at 200 ppm [3] was ≥ 50%.
With CCN(C)/C=N/c1cc(Br)c(OC2CCCCCC2)nc1C [Q.171] the pest or weed control at 200 ppm [1] was ≥ 50%, the pest or weed control at 200 ppm [2] was ≥ 50% and the pest or weed control at 200 ppm [3] was ≥ 50%.
In the case of CCN(C)/C=N/c1cc(I)c(O[C@H]2CC[C@H](C(C)C)CC2)nc1C [Q.179], the pest or weed control at 200 ppm [1] is reported as ≥ 50%, the pest or weed control at 200 ppm [2] is reported as ≥ 50% and the pest or weed control at 200 ppm [3] is reported as ≥ 50%.
For CSc1ccccc1COc1ccc(/N=C/N(C)C(C)C)c(C)n1 [Q.339], the pest or weed control at 200 ppm [1] was ≥ 50%, the pest or weed control at 200 ppm [2] was ≥ 50% and the pest or weed control at 200 ppm [3] was ≥ 50%.
With CCN(C)/C=N/c1cc(Br)c(OC(C)c2ccccc2C(C)C)nc1C (stereo not shown) [Q.307] the pest or weed control at 200 ppm [1] was ≥ 50%, the pest or weed control at 200 ppm [2] was ≥ 50% and the pest or weed control at 200 ppm [3] was ≥ 50%.
For CCN(C)/C=N/c1cc(Br)c(OC2CCC(O)CC2)nc1C (stereo not shown) [Q.213], the pest or weed control at 200 ppm [1] was ≥ 50%, the pest or weed control at 200 ppm [2] was ≥ 50% and the pest or weed control at 200 ppm [3] was ≥ 50%.
With CCN(C)/C=N/c1cc(Br)c(OCc2ccccc2C#Cc2ccccc2)nc1C [Q.310] the pest or weed control at 200 ppm [1] was ≥ 50%, the pest or weed control at 200 ppm [2] was ≥ 50% and the pest or weed control at 200 ppm [3] was ≥ 50%.
With CCc1ccccc1C(C)Oc1nc(C)c(/N=C/N(C)CC)cc1Br (stereo not shown) [Q.283] the pest or weed control at 200 ppm [1] was ≥ 50%, the pest or weed control at 200 ppm [2] was ≥ 50% and the pest or weed control at 200 ppm [3] was ≥ 50%.
In the case of CCN(C)/C=N/c1cc(Br)c(OCC(C)F)nc1C (stereo not shown) [Q.384], the pest or weed control at 200 ppm [1] is reported as ≥ 50%, the pest or weed control at 200 ppm [2] is reported as ≥ 50% and the pest or weed control at 200 ppm [3] is reported as ≥ 50%.
Cc1cc(C)cc(C(C)Oc2ccc(/N=C/N(C)C(C)C)c(C)n2)c1 (stereo not shown) [Q.360] was tested, and the pest or weed control at 200 ppm [1] was ≥ 50%, the pest or weed control at 200 ppm [2] was ≥ 50% and the pest or weed control at 200 ppm [3] was ≥ 50%.
In the case of CCN(C)/C=N/c1cc(C)c(O[C@H]2CC[C@H](C(C)C)CC2)nc1C [Q.185], the pest or weed control at 200 ppm [1] is reported as ≥ 50%, the pest or weed control at 200 ppm [2] is reported as ≥ 50% and the pest or weed control at 200 ppm [3] is reported as ≥ 50%.
In the case of CCC(Oc1ccc(/N=C/N(C)CC)c(C)n1)c1ccccc1 (stereo not shown) [Q.347], the pest or weed control at 200 ppm [1] is reported as ≥ 50%, the pest or weed control at 200 ppm [2] is reported as ≥ 50% and the pest or weed control at 200 ppm [3] is reported as ≥ 50%.
In the case of CCN(C)/C=N/c1cc(Br)c(OCc2cc(-c3ccc(F)cc3)ns2)nc1C [Q.123], the pest or weed control at 200 ppm [1] is reported as ≥ 50%, the pest or weed control at 200 ppm [2] is reported as ≥ 50% and the pest or weed control at 200 ppm [3] is reported as ≥ 50%.
For CCN(C)/C=N/c1cc(Br)c(OCCCC2CC2)nc1C [Q.356], the pest or weed control at 200 ppm [1] was ≥ 50%, the pest or weed control at 200 ppm [2] was ≥ 50% and the pest or weed control at 200 ppm [3] was ≥ 50%.
With CCN(C)/C=N/c1cc(Br)c(OCc2ccc(F)c(C)c2)nc1C [Q.323] the pest or weed control at 200 ppm [1] was ≥ 50%, the pest or weed control at 200 ppm [2] was ≥ 50% and the pest or weed control at 200 ppm [3] was ≥ 50%.
In the case of C#CC(C)Oc1nc(C)c(/N=C/N(C)CC)cc1Br (stereo not shown) [Q.080], the pest or weed control at 200 ppm [1] is reported as ≥ 50%, the pest or weed control at 200 ppm [2] is reported as ≥ 50% and the pest or weed control at 200 ppm [3] is reported as ≥ 50%.
In the case of CCN(C)/C=N/c1ccc(OCCc2ccccc2C)nc1C [Q.350], the pest or weed control at 200 ppm [1] is reported as ≥ 50%, the pest or weed control at 200 ppm [2] is reported as ≥ 50% and the pest or weed control at 200 ppm [3] is reported as ≥ 50%.
With CCN(C)/C=N/c1cc(Br)c(O[C@@H]2C[C@@H]3ON=C(C)[C@@H]3C2)nc1C [Q.068] the pest or weed control at 200 ppm [1] was ≥ 50%, the pest or weed control at 200 ppm [2] was ≥ 50% and the pest or weed control at 200 ppm [3] was ≥ 50%.
CCN(C)/C=N/c1cc(Br)c(OC2CCCc3ccc(F)cc32)nc1C (stereo not shown) [Q.048] was tested, and the pest or weed control at 200 ppm [1] was ≥ 50%, the pest or weed control at 200 ppm [2] was ≥ 50% and the pest or weed control at 200 ppm [3] was ≥ 50%.
C/C=C/C(C)Oc1nc(C)c(/N=C/N(C)CC)cc1Br (stereo not shown) [Q.331] was tested, and the pest or weed control at 200 ppm [1] was ≥ 50%, the pest or weed control at 200 ppm [2] was ≥ 50% and the pest or weed control at 200 ppm [3] was ≥ 50%.
In the case of CCN(C)/C=N/c1cc(Br)c(OC(C)CC[Si](C)(C)C)nc1C (stereo not shown) [Q.273], the pest or weed control at 200 ppm [1] is reported as ≥ 50%, the pest or weed control at 200 ppm [2] is reported as ≥ 50% and the pest or weed control at 200 ppm [3] is reported as ≥ 50%.
In the case of CCc1cc(/N=C/N(C)CC)c(C)nc1O[C@H]1CC[C@H](C(C)C)CC1 [Q.252], the pest or weed control at 200 ppm [1] is reported as ≥ 50% and the pest or weed control at 200 ppm (Pyrenophora teres) is reported as ≥ 50%.
CCN(C)/C=N/c1cc(Br)c(OCc2snc(-c3ccccc3)c2Cl)nc1C [Q.109] was tested, and the pest or weed control at 200 ppm [1] was ≥ 50%, the pest or weed control at 200 ppm [2] was ≥ 50% and the pest or weed control at 200 ppm [3] was ≥ 50%.
CCN(C)/C=N/c1ccc(OC(C)Cc2ccccc2)nc1C (stereo not shown) [Q.368] was tested, and the pest or weed control at 200 ppm [1] was ≥ 50%, the pest or weed control at 200 ppm [2] was ≥ 50% and the pest or weed control at 200 ppm [3] was ≥ 50%.
In the case of CCN(C)/C=N/c1cc(Br)c(OCc2cc(F)c(F)c(F)c2)nc1C [Q.317], the pest or weed control at 200 ppm [1] is reported as ≥ 50%, the pest or weed control at 200 ppm [2] is reported as ≥ 50% and the pest or weed control at 200 ppm [3] is reported as ≥ 50%.
